# Source: PMC12123601, “Light-Induced, Lysine-Targeting Irreversible Covalent Inhibition of the Human Oxygen Sensing Hydroxylase Factor Inhibiting HIF (FIH)” (Journal of the American Chemical Society, 2025)
# Values joined by “and” are separate entries in the source; they are usually repeats but may differ in a detail not shown here. Equal entries are not always repeated. Where two headings read alike, the source gives them in different places.
# Target: T1, FIH^WT (Homo sapiens, UniProt Q9NWT6)
# T1 construct: pET28a vectors encoding for full-length FIH with an N-terminal His6 tag; His6 (N); host or cells: Escherichia coli BL21
# Assay: Affinity-based fluorescence polarization (FP) assay with FIH WT, without and with 365 nm irradiation
# Conditions: read-out: Binding affinity to FIH^WT: Ki
# Description: We also performed a reported affinity-based fluorescence polarization (FP) assay (Figure S6) , under light activation to measure the binding affinity of NBA-ZG-2291 to FIH (Figure A). […] These observations are consistent with the intact protein MS analyzes. We also evaluated the binding affinities of two negative controls to FIH, which were designed not to covalently react with Lys106.
# 4 (A) Light-induced click conjugation between NBA-ZG-2291 and FIH protein. (B) Light-induced binding affinity of NBA-ZG-2291 to FIH^ WT . (C) Light-induced binding affinity of NBA-ZG-2291 to FIH^ K106A . […] TEXT PRINTED IN THE PICTURE: (B) NBA-ZG-2291: Binding affinity to FIH^WT: Ki (nM): 414 ± 14 (Irradtion time (min): 0); Binding affinity to FIH^WT: Ki (nM): 74.1 ± 1.6 (Irradtion time (min): 15); Binding affinity to FIH^WT: Ki (nM): 46.7 ± 1.4 (Irradtion time (min): 30); Binding affinity to FIH^WT: Ki (nM): 33.2 ± 0.6 (Irradtion time (min): 60); Binding affinity to FIH^WT: Ki (nM): 30.2 ± 2.0 (Irradtion time (min): 90); Binding affinity to FIH^WT: Ki (nM): 32.1 ± 0.7 (Irradtion time (min): 120) | (B) Neg-1: Binding affinity to FIH^WT: Ki (nM): 423 ± 7 (Irradtion time (min): 0); Binding affinity to FIH^WT: Ki (nM): 408 ± 30 (Irradtion time (min): 15); Binding affinity to FIH^WT: Ki (nM): 459 ± 32 (Irradtion time (min): 30); Binding affinity to FIH^WT: Ki (nM): 427 ± 17 (Irradtion time (min): 60); Binding affinity to FIH^WT: Ki (nM): 396 ± 29 (Irradtion time (min): 90); Binding affinity to FIH^WT: Ki (nM): 428 ± 15 (Irradtion time (min): 120) | (B) Neg-2: Binding affinity to FIH^WT: Ki (nM): 742 ± 65 (Irradtion time (min): 0); Binding affinity to FIH^WT: Ki (nM): 799 ± 69 (Irradtion time (min): 15); Binding affinity to FIH^WT: Ki (nM): 758 ± 13 (Irradtion time (min): 30); Binding affinity to FIH^WT: Ki (nM): 744 ± 30 (Irradtion time (min): 60); Binding affinity to FIH^WT: Ki (nM): 788 ± 36 (Irradtion time (min): 90); Binding affinity to FIH^WT: Ki (nM): 786 ± 35 (Irradtion time (min): 120) | (C) NBA-ZG-2291: Binding affinity to FIH^K106A: Ki (nM): 442 ± 12 (Irradtion time (min): 0); Binding affinity to FIH^K106A: Ki (nM): 427 ± 22 (Irradtion time (min): 15); Binding affinity to FIH^K106A: Ki (nM): 426 ± 7 (Irradtion time (min): 30); Binding affinity to FIH^K106A: Ki (nM): 420 ± 11 (Irradtion time (min): 60); Binding affinity to FIH^K106A: Ki (nM): 418 ± 5 (Irradtion time (min): 90); Binding affinity to FIH^K106A: Ki (nM): 424 ± 12 (Irradtion time (min): 120) | (C) Neg-1: Binding affinity to FIH^K106A: Ki (nM): 271 ± 14 (Irradtion time (min): 0); Binding affinity to FIH^K106A: Ki (nM): 275 ± 15 (Irradtion time (min): 15); Binding affinity to FIH^K106A: Ki (nM): 268 ± 25 (Irradtion time (min): 30); Binding affinity to FIH^K106A: Ki (nM): 266 ± 22 (Irradtion time (min): 60); Binding affinity to FIH^K106A: Ki (nM): 264 ± 41 (Irradtion time (min): 90); Binding affinity to FIH^K106A: Ki (nM): 270 ± 3 (Irradtion time (min): 120) | (C) Neg-2: Binding affinity to FIH^K106A: Ki (nM): 567 ± 37 (Irradtion time (min): 0); Binding affinity to FIH^K106A: Ki (nM): 548 ± 61 (Irradtion time (min): 15); Binding affinity to FIH^K106A: Ki (nM): 521 ± 50 (Irradtion time (min): 30); Binding affinity to FIH^K106A: Ki (nM): 627 ± 17 (Irradtion time (min): 60); Binding affinity to FIH^K106A: Ki (nM): 565 ± 10 (Irradtion time (min): 90); Binding affinity to FIH^K106A: Ki (nM): 552 ± 38 (Irradtion time (min): 120) […]
# 3. Experimental procedures
# 3.1 Fluorescence polarization (FP) assays1 with FIHWT and FIHK106A pET28a vectors encoding for full-length FIH with an N-terminal His6 tag or for FIH (K106A) with an N-terminal His6 tag were purchased from Nanjing Zoonbio Biotechnology. Both the FIHWT and FIHK106A protein were expressed from the respective plasmid in Escherichia coli BL21 at 20 °C for 16 h. E. coli cells were lysed and the lysate were clarified by centrifugation. His6- […]
# T1 sequence (Q9NWT6 whole entry): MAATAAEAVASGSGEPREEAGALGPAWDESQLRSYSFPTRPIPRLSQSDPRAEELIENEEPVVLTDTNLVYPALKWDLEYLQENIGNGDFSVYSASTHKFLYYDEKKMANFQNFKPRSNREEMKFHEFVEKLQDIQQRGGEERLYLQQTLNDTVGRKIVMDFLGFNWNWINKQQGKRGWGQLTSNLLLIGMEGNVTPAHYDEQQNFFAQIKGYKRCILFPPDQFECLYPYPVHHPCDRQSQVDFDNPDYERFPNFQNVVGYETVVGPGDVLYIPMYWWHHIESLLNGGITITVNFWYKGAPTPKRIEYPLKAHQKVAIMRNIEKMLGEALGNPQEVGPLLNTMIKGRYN
structure (smiles),measurement,setting,value
O=C(O)CNC(=O)c1ncc(-c2cc(-c3ccc(CO)c([N+](=O)[O-])c3)no2)cc1O [NBA-ZG-2291],Ki,irradiation time 0 min,414 ± 14 nM
same,Ki,irradiation time 15 min,74.1 ± 1.6 nM
same,Ki,irradiation time 30 min,~40 nM and 46.7 nM
same,Ki,irradiation time 60 min,33.2 ± 0.6 nM
same,Ki,irradiation time 90 min,30.2 ± 2 nM
same,Ki,irradiation time 120 min,32.1 ± 0.7 nM
